Assay results published in patent US12070444B2, “Modulation of molecular markers using S-equol” (Board of Regents, The University of Texas System, priority 2020, dated 2024).
Entries after “also recorded” stand apart in the source; their conditions may differ.

Tested on: MDA-MB-231 cell-derived xenograft tumor
Assay: MDA-MB-231 xenograft in athymic nude mice
Assay type: in vivo
Description: Further work in a preclinical animal model supports the notion of using S-equol to treat TNBC breast cancer. In immunocompromised mouse xenograft experiments, which used MDA-MB-231, a human TNBC breast cancer cell line, growth of tumors was suppressed by 60% with S-equol treatment compared to control. 5×10^6 MDA-MB-231 cells were injected orthotopically into mammary gland fat pads of 6 week-old female athymic nude mice (Harlan). When the tumor masses reached 50 to 80 mm^3 (about one week after the inoculation), the mice were given daily subcutaneous injections of S-equol (20 or 60 mg/kg per day) or PBS as a vehicle control. Tumor development was followed by caliper measurements along two orthogonal axes: length (L) and width (W) and volume (V) was estimated by the formula V=[L×(W^2)]/2. […] Representative tumor sections from vehicle control and S-equol-treated mice were tested for Ki-67 expression to assess cell proliferation, and for ERβ ([…]. Statistical significance in the experiments was assessed by two-tailed Student's t test. In all assays, p<0.05 was considered statistically significant. The results of these experiments are shown in FIGS. 16 and 20. See, Yuan et al. 2016 listed below, which is incorporated by reference herein for all purposes.

Oc1ccc([C@H]2COc3cc(O)ccc3C2)cc1 [S-equol]
xenograft tumor growth (S-equol vs vehicle (FIG. 16B, FIG. 20)): inhibited; also recorded: reduces the growth of TNBC cells | growth of tumors suppressed compared to control (daily s.c. S-equol 20 or 60 mg/kg per day vs PBS): 60%
